What was measured:
A431 (EGFR WT) cells = assay: Antiproliferative activity against A431 (EGFR WT) cells, Cell Titer Glow; assay type: cell-based; details: Homo sapiens, A-431, 72 h; three days after addition of compounds; read-out: Antiproliferative activity A431 wild-type (WT) IC50
Procedure: (§1) Antiproliferative Activity of the Compounds Disclosed Herein Against Ba/F3 (EGFR^del19/T790M/C797S) Triple-Mutant Cells and A431 (EGFR WT) Cells
(§2) • 3000 Ba/F3 cells carrying EGFR (del19/T790M/C797S) or 2000 A431 cells were seeded in a 384-well plate. After one day, serially diluted compounds were added (up to 500 nM for Ba/F3 cells and up to 10 μM for A431 cells). Three days after the addition of the compounds, Cell Titer Glow was added to evaluate cell growth and the percentage cell growth inhibition by the compounds and the IC50 values were calculated.

[1] = biological target: Ba/F3 (EGFR^del19/T790M/C797S) triple-mutant cells (Homo sapiens, UniProt P00533, T790M/C797S, cells depend on it, form not given); assay: Antiproliferative activity against Ba/F3 (EGFR del19/T790M/C797S) triple-mutant cells, Cell Titer Glow; assay type: cell-based; details: three days after addition of compounds; read-out: Antiproliferative activity BaF3(EGFR^del19/T790M/C797S) IC50
Procedure: as §1, §2

EGFR (del19/T790M/C797S) = assay: HTRF inhibitory activity assay against EGFR (del19/T790M/C797S) enzyme; assay type: biochemical
Method in brief: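 Wild-type or mutant EGFR preincubated with serially diluted compound 10 min at 28 °C, then reacted 40 min at room temperature with biotinylated TK substrate and ATP. Phosphorylation detected by HTRF (Eu-cryptate anti-TK antibody, streptavidin-XL665, 60 min), 665/615 nm ratio; % inhibition and IC50 vs control.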

Ba/F3 (EGFR^del19/T790M/C797S) triple-mutant cells, sequence (P00533 with tags, fused parts or gaps DEL746-750/T790M/C797S, form open): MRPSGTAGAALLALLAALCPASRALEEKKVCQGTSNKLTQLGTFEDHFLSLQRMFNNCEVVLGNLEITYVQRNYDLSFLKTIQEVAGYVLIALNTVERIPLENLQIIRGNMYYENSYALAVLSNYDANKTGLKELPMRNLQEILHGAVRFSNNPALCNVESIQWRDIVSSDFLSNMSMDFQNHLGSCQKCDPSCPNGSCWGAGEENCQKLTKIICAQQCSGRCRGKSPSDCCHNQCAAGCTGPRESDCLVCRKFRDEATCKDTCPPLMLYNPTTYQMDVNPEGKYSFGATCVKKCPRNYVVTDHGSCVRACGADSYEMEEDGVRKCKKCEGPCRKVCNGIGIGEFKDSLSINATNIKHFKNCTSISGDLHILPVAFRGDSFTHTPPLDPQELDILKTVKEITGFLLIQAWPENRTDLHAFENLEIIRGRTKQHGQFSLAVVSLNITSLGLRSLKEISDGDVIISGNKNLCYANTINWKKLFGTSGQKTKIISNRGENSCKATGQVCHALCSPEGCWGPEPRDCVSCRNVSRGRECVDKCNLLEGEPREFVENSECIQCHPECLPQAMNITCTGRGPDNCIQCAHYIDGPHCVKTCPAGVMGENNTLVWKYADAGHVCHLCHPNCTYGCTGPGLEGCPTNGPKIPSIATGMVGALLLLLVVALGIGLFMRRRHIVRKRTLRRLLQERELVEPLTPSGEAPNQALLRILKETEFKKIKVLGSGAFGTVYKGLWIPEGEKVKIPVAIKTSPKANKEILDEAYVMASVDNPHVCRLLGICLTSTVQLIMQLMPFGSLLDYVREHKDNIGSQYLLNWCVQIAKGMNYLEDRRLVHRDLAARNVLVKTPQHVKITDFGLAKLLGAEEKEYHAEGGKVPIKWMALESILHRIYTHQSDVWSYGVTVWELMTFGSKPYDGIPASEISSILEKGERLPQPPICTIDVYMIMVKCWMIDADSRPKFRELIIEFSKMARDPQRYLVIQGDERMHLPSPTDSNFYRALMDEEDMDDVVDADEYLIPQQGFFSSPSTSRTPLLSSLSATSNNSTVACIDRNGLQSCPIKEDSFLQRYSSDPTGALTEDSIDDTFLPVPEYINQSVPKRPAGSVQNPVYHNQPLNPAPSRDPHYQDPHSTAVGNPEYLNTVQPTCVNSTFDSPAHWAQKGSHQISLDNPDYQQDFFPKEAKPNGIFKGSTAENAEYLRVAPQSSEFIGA

| Compound | IC50 (A431 (EGFR WT) cells) [nM] | GI50 [1] [nM] | EGFR (del19/T790M/C797S) inhibition (%) (0.3 nM compound) (EGFR (del19/T790M/C797S)) |
| --- | --- | --- | --- |
| CN1CCN(C2CCN(c3ccc(Nc4nc(NC5CCC(O)C5)c(-c5ccccc5)nc4C(N)=O)cc3)CC2)CC1 (stereo not shown) [compound 135, 5-((3-hydroxycyclopentyl)amino)-3-((4-(4-(4-methylpiperazin-1-yl)piperidin-1-yl)phenyl)amino)-6-phenylpyrazine-2-carboxamide] | 340 | 40 |  |
| CN1CCN(C2CCN(c3ccc(Nc4nc(N[C@@H]5CCC[C@H](O)C5)c(-c5ccccc5)nc4C(N)=O)cc3)CC2)CC1 [compound 141] | 230 | 27 |  |
| Cc1cc(Nc2nc(NC3CCOCC3)c(-c3ccncc3)nc2C(N)=O)ccc1N1CCN(C)CC1 [compound 148] | 1700 | 68 |  |
| CCc1cc(Nc2nc(NC3CCOCC3)c(-c3ccncc3)nc2C(N)=O)ccc1N1CCC(N2CCN(C)CC2)CC1 [compound 161] | 1200 | 54 |  |
| CN1CCN(c2ccc(Nc3nc(NC4CCOCC4)c(-c4cc[nH]n4)nc3C(N)=O)cc2)CC1 [compound 174] | 1000 | 51 |  |
| Cc1cc(Nc2nc(NC3CCOCC3)c(-c3cc[nH]n3)nc2C(N)=O)ccc1N1CCC(N2CCN(C)CC2)CC1 [compound 177] | 690 | 19 | ++ (++ indicates an inhibition from 20% to 50%) |
| CCc1cc(Nc2nc(NC3CCOCC3)c(-c3cc[nH]n3)nc2C(N)=O)ccc1N1CCC(N2CCN(C)CC2)CC1 [compound 184] | 980 | 18 |  |
| Cc1cc(Nc2nc(NC3CCOCC3)c(-c3ccccn3)nc2C(N)=O)ccc1N1CCC(N2CCN(C)CC2)CC1 [compound 213] | > 10000 | 226 |  |
| COc1cc(Nc2nc(NC3CCOCC3)c(-c3cc[nH]n3)nc2C(N)=O)ccc1N1CCC(N2CCN(C)CC2)CC1 [compound 417] | 190 | 57 |  |
| CC(C)c1cc(Nc2nc(NC3CCOCC3)c(-c3cc[nH]n3)nc2C(N)=O)ccc1N1CCC(N2CCN(C)CC2)CC1 [compound 420] | 3700 | 32 |  |
| CN1CCN(C2CCN(c3ccc(Nc4nc(NC5CCOCC5)c(-c5cc[nH]n5)nc4C(N)=O)cc3C3CC3)CC2)CC1 [compound 421] | 530 | 36 |  |
| COc1cc(Nc2nc(NC3CC4(COC4)C3)c(-c3cc[nH]n3)nc2C(N)=O)ccc1N1CCC(N2CCN(C)CC2)CC1 [compound 504] | 330 | 98 |  |
| CN1CCN(C2CCN(c3ccc(Nc4nc(NC5CCOCC5)c(-c5ccnc6[nH]ccc56)nc4C(N)=O)cc3)CC2)CC1 [compound 512] | 20 | 6 | +++ (+++ indicates an inhibition greater than 50%.) |
| Cc1cc(Nc2nc(NC3CCOCC3)c(-c3cccc4[nH]ccc34)nc2C(N)=O)ccc1N1CCC(N2CCN(C)CC2)CC1 [compound 513] | 560 | 57 |  |
| Cc1cc(Nc2nc(NC3CCOCC3)c(-c3ccnc4[nH]ccc34)nc2C(N)=O)ccc1N1CCC(N2CCN(C)CC2)CC1 [compound 514] | 250 | 48 |  |
| CCc1cc(Nc2nc(NC3CCOCC3)c(-c3cccc4[nH]ccc34)nc2C(N)=O)ccc1N1CCC(N2CCN(C)CC2)CC1 [compound 515] | 520 | 42 |  |
| CCc1cc(Nc2nc(NC3CCOCC3)c(-c3ccnc4[nH]ccc34)nc2C(N)=O)ccc1N1CCC(N2CCN(C)CC2)CC1 [compound 516] | 350 | 42 |  |
| CN1CCN(C2CCN(c3ccc(Nc4nc(N[C@H]5C[C@H](O)C5)c(-c5cccc6[nH]ccc56)nc4C(N)=O)cc3)CC2)CC1 [compound 525] | 60 | 25 | +++ (+++ indicates an inhibition greater than 50%.) |
| CN1CCN(C2CCN(c3ccc(Nc4nc(NCC(C)(C)O)c(-c5cccc6[nH]ccc56)nc4C(N)=O)cc3)CC2)CC1 [compound 528] | 70 | 13 | +++ (+++ indicates an inhibition greater than 50%.) |
| CN1CCN(C2CCN(c3ccc(Nc4nc(NC5CCOCC5)c(-c5cncc6[nH]ccc56)nc4C(N)=O)cc3)CC2)CC1 [compound 538] | 290 | 35 |  |
| CN1CCN(C2CCN(c3ccc(Nc4nc(NC5CCOCC5)c(-c5cccc6[nH]cnc56)nc4C(N)=O)cc3)CC2)CC1 [compound 540] | 1200 | 48 |  |
